Measured values: publication PMC12126180 (Journal of chemical information and modeling, 2021)

Legend:
COVID-19 = conditions: 1063 patients, cited from earlier work
SARS-CoV-2 WA1 strain = assay type: cell-based; conditions: Vero E6 cells

Row | SMILES | mortality rate (COVID-19; placebo 11.9%) [%] | recovery time shortened with respect to the placebo (COVID-19) | activity against SARS-CoV-2 replication in words (SARS-CoV-2 WA1 strain)
1 | CCC(CC)COC(=O)[C@H](C)N[P@](=O)(OC[C@H]1O[C@@](C#N)(c2ccc3c(N)ncnn23)[C@H](O)[C@@H]1O)Oc1ccccc1 [Remdesivir] | 7.1 | four | 
2 | CC(C)(O)c1ccccc1CC[C@@H](SCC1(CC(=O)O)CC1)c1cccc(/C=C/c2ccc3ccc(Cl)cc3n2)c1 [Montelukast] |  |  | weakly active
